Source: patent US9434727B2, “Substituted 4-phenylpiperidines, their preparation and use” (THE TRUSTEES OF COLUMBIA UNIVERSITY IN THE CITY OF NEW YORK, priority 2014, dated 2016)
Where a name gives a salt, the structure may show the parent alone.

What was measured:
RBP4-TTR interaction [1] = target: T1, RBP4-TTR interaction (Homo sapiens (Human), UniProt P02753); experiment: TR-FRET (HTRF) assay for retinol-induced RBP4-TTR interaction; type: biochemical; details: in the presence of 1 μM retinol; read-out: HTRF assay for antagonists of RBP4-TTR interaction: IC50
Method in brief: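 Bacterial MBP-RBP4 and Eu³⁺-cryptate-labeled untagged human TTR were incubated with titrated compound in the presence of 1 μM retinol, overnight at +4° C in the dark. Buffer: 10 mM Tris-HCl pH 7.5, 1 mM DTT, 0.05% NP-40, 0.05% Prionex, 6% glycerol, 400 mM KF. Signal is reported as Flu665/Flu620×10,000.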

RBP4 [2] = target: T2, RBP4 (Homo sapiens (Human), UniProt P02753); experiment: Scintillation proximity (SPA) RBP4 binding assay; details: 10 nM 3H-Retinol, 50 nM biotinylated RBP4
Method in brief: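 Biotinylated urinary human RBP4 (50 nM) on streptavidin-PVT SPA beads with 10 nM ³H-retinol and test compound, in PBS pH 7.4, 1 mM EDTA, 0.1% BSA, 0.5% CHAPS. Nonspecific binding with 20 μM unlabeled retinol. Equilibrated 6 h at room temperature then overnight at 4° C under dim light.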

serum RBP4 = serum RBP4 (Mus musculus (Mouse), UniProt Q00724); experiment: Serum RBP4 levels in Abca4−/− mice; type: in vivo; details: 25 mg/kg for 12 weeks, mice starting at 17 weeks old
Protocol: (§1) The effectiveness of the compounds listed in Table 1 are tested in wild-type and Abca4−/− mice. The Abca4−/− mouse model manifests accelerated accumulation of lipofuscin in the RPE and is considered a pre-clinical efficacy model for a drug reducing lipofuscin accumulation. Compounds are orally dosed for 3 weeks at 30 mg/kg. There is a reduction in the serum RBP4 level in treated animals. The levels of A2E/isoA2E and other bisretinoids are reduced in treated mice.
(§2) Abca4−/− mice have A2E levels in the ˜15-19 pmoles/eye range at 17 weeks old. Mice, starting at 17 weeks old, were treated with 25 mg/kg of Compound 81 for 12 weeks.

Abca4−/− mice [3] = experiment: Bisretinoid accumulation in eyes of Abca4−/− mice; type: in vivo, mouse; details: 25 mg/kg for 12 weeks, mice starting at 17 weeks old, versus vehicle-treated controls
Protocol: as §1, §2

RBP4 [4] = target: T2, RBP4; details: cited from earlier work
RBP4-TTR interaction [5] = target: T1, RBP4-TTR interaction; details: cited from earlier work
serum RBP4 and retinol = serum RBP4 and retinol (Rattus norvegicus (Rat), UniProt P04916); details: in vivo; cited from earlier work
mice = details: cited from earlier work
Abca4−/− mice [6] = details: cited from earlier work
[7] = test system: retinal pigment epithelium cells; details: many cell types, including the retinal pigment epithelium cells; cited from earlier work

Compound	IC50 (RBP4-TTR interaction [1]) [nM]	IC50 (RBP4 [2]) [nM]	serum RBP4 level (serum RBP4; present-tense paper example)	also measured
O=C(c1n[nH]c2c1CCNC2)N1CCC(c2cccc(F)c2C(F)(F)F)CC1 [Compound 30, (4-(3-Fluoro-2-(trifluoromethyl)phenyl)piperidin-1-yl)(4,5,6,7-tetrahydro-1H-pyrazolo[3,4-c]pyridin-3-yl)methanone Hydrochloride]	44.1	13.3	significant serum RBP4 reduction	
O=C(c1n[nH]c2c1CCNC2)N1CCC(c2ccc(F)c(F)c2C(F)(F)F)CC1 [Compound 34]	53.1	20.7	significant serum RBP4 reduction	
O=C(c1n[nH]c2c1CNCC2)N1CCC(c2ccc(F)c(F)c2C(F)(F)F)CC1 [Compound 36, (4-(3,4-Difluoro-2-(trifluoromethyl)phenyl)piperidin-1-yl)(4,5,6,7-tetrahydro-1H-pyrazolo[4,3-c]pyridin-3-yl)methanone Trifluoroacetic Acid Salt]	291	10.9	significant serum RBP4 reduction	
O=C(c1n[nH]c2c1CNC2)N1CCC(c2ccc(F)c(F)c2C(F)(F)F)CC1 [Compound 38, (4-(3,4-Difluoro-2-(trifluoromethyl)phenyl)piperidin-1-yl)(1,4,5,6-tetrahydropyrrolo[3,4-c]pyrazol-3-yl)methanone Hydrochloride]	200	26.9	significant serum RBP4 reduction	
O=C(c1n[nH]c2c1CCNC2)N1CCC(c2cccc(F)c2Cl)CC1 [Compound 40, (4-(2-Chloro-3-fluorophenyl)piperidin-1-yl)(4,5,6,7-tetrahydro-1Hpyrazolo[3,4-c]pyridin-3-yl)methanone Hydrochloride]	84.9	14	significant serum RBP4 reduction	
O=C(c1n[nH]c2c1CNCC2)N1CCC(c2cccc(F)c2Cl)CC1 [Compound 42, (4-(2-Chloro-3-fluorophenyl)piperidin-1-yl)(4,5,6,7-tetrahydro-1Hpyrazolo[4,3-c]pyridin-3-yl) methanone Hydrochloride]	791	424	significant serum RBP4 reduction	
CC(=O)N1CCc2c(C(=O)N3CCC(c4ccc(F)c(F)c4C(F)(F)F)CC3)n[nH]c2C1 [Compound 81, 1-(3-(4-(3,4-Difluoro-2-(trifluoromethyl)phenyl)piperidine-1-carbonyl)-4,5-dihydro-1H-pyrazolo[3,4-c]pyridin-6(7H)-yl)ethanone]				reduction in bisretinoid content (Abca4−/− mice [3]): 53%; serum RBP4 level (serum RBP4): significant serum RBP4 reduction
CC1=C(/C=C/C(C)=C/C=C/C(C)=C/C(=O)Nc2ccc(O)cc2)C(C)(C)CCC1 [fenretinide, N-(4-hydroxy-phenyl)retinamide]				binding to RBP4 and displacement of all-trans retinol (RBP4 [4]): bind to RBP4, displace all-trans retinol from RBP4; RBP4-TTR interaction (RBP4-TTR interaction [5]): disrupt the RBP4-TTR interaction; serum RBP4 and retinol (serum RBP4 and retinol): reduce serum RBP4 and retinol; formation of hemangiosarcomas (mice): stimulate formation of hemangiosarcomas; A2E production (Abca4−/− mice [6]; Abca4−/− mice): reduced A2E production; ocular all-trans retinol uptake and visual cycle (Abca4−/− mice [6]; mouse, in vivo): inhibit ocular all-trans retinol uptake and slow down the visual cycle; induction of apoptosis [7]: extremely active inducer of apoptosis
